Measurements published in PMC10838953.

Experiments:
[1] = target: MAP3K3 (Homo sapiens, UniProt Q99759); assay: biochemical; details: read-out: %Ctrl @ 2000nM
[2] = target: CAMK2A (Homo sapiens, UniProt Q9UQM7); assay: biochemical; details: read-out: %Ctrl @ 2000nM
[3] = test system: MCF10A cells; details: high concentrations
[4] = target: DDR2 (Homo sapiens, UniProt Q16832); assay: biochemical; details: read-out: %Ctrl @ 2000nM
[5] = target: DCAMKL1 (Homo sapiens, UniProt O15075); assay: biochemical; details: read-out: %Ctrl @ 2000nM
[6] = target: PDGFRA (Homo sapiens, UniProt P16234); assay: biochemical; details: read-out: %Ctrl @ 2000nM
[7] = target: EGFR(T790M) (Homo sapiens, UniProt P00533, T790M); assay: biochemical; details: read-out: %Ctrl @ 2000nM
[8] = target: ICK (Homo sapiens, UniProt Q9UPZ9); assay: biochemical; details: read-out: %Ctrl @ 2000nM
[9] = target: ABL1(Q252H)-phosphorylated (Homo sapiens, UniProt P00519, Q252H); assay: biochemical; details: read-out: %Ctrl @ 2000nM
[10] = target: TLK1 (Homo sapiens, UniProt Q9UKI8); assay: biochemical; details: read-out: %Ctrl @ 2000nM
Chain of TLK1 (Q9UKI8 whole entry): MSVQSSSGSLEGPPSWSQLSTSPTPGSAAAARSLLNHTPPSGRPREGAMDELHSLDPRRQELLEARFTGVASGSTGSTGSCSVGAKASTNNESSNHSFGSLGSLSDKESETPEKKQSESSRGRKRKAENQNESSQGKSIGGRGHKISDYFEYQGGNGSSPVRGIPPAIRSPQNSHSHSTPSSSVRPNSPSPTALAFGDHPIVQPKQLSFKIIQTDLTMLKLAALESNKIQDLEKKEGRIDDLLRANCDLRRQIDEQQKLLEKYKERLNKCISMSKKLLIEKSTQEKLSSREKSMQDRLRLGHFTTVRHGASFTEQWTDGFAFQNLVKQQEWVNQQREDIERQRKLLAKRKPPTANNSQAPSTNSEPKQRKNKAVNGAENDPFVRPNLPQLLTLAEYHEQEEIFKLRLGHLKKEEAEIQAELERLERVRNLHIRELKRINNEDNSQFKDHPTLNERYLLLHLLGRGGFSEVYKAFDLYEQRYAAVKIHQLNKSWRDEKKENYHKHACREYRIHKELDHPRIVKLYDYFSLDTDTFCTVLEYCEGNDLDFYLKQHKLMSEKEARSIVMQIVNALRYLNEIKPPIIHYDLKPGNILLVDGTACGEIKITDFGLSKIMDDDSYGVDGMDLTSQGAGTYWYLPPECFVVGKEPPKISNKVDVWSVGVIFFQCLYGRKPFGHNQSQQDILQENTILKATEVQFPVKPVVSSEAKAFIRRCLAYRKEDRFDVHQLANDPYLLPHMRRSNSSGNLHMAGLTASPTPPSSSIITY

[11] = target: BTK (Homo sapiens, UniProt Q06187); assay: biochemical; details: read-out: %Ctrl @ 2000nM
Chain of BTK (Q06187 whole entry): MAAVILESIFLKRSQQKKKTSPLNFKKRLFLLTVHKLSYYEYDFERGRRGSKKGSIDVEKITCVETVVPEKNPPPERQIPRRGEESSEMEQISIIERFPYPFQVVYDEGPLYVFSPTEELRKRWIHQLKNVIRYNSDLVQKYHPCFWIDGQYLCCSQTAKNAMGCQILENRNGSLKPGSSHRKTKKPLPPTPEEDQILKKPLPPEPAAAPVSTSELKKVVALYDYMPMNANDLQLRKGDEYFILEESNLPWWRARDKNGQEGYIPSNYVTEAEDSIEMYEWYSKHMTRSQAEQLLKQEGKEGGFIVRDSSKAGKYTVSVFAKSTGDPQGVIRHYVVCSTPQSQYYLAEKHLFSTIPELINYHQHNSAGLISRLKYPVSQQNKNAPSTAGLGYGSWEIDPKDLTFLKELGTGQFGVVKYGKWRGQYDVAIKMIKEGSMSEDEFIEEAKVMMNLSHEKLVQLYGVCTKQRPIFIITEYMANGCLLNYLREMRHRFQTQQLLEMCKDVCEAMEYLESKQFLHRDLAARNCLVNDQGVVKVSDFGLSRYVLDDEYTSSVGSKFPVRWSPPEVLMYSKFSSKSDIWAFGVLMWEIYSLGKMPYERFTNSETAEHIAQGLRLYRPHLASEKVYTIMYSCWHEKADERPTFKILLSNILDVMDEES

[12] = target: EGFR(L747-E749del, A750P) (Homo sapiens, UniProt P00533, A750P/DEL747-749); assay: biochemical; details: read-out: %Ctrl @ 2000nM
[13] = target: PIK3CA(H1047Y) (Homo sapiens, UniProt P42336, H1047Y); assay: biochemical; details: read-out: %Ctrl @ 2000nM
[14] = target: PAK3 (Homo sapiens, UniProt O75914); assay: biochemical; details: read-out: %Ctrl @ 2000nM
[15] = target: MKNK1 (Homo sapiens, UniProt Q9BUB5); assay: biochemical; details: read-out: %Ctrl @ 2000nM
[16] = test system: PARP; details: 786-O cells; 2.5-15 μM; 48 h
[17] = target: ARK5 (Homo sapiens, UniProt O60285); assay: biochemical; details: read-out: %Ctrl @ 2000nM
Chain of ARK5 (O60285 whole entry): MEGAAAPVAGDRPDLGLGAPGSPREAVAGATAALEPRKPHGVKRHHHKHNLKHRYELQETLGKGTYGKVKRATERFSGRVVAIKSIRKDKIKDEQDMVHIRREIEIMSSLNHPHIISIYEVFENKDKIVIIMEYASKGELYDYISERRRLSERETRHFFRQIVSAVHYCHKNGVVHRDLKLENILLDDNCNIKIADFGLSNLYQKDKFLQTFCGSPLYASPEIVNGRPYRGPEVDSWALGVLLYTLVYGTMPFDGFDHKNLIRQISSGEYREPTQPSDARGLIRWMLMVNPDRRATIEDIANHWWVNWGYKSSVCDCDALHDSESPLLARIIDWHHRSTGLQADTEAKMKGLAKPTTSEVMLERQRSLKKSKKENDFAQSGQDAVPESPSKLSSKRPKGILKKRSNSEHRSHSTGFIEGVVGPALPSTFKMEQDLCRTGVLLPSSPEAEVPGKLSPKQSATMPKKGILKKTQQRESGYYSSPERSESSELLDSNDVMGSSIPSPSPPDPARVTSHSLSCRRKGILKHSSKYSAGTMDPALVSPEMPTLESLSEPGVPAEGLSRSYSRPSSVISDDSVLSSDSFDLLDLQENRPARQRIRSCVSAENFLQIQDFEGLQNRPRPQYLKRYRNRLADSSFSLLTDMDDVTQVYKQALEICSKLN

[18] = target: BRAF (Homo sapiens, UniProt P15056); assay: biochemical; details: read-out: %Ctrl @ 2000nM
[19] = target: JNK1 (Homo sapiens, UniProt P45983); assay: biochemical; details: read-out: %Ctrl @ 2000nM
[20] = target: CDC2L5 (Homo sapiens, UniProt Q14004); assay: biochemical; details: read-out: %Ctrl @ 2000nM
[21] = target: TRKB (Homo sapiens, UniProt Q16620); assay: biochemical; details: read-out: %Ctrl @ 2000nM
[22] = target: LIMK1 (Homo sapiens, UniProt P53667); assay: biochemical; details: read-out: %Ctrl @ 2000nM
[23] = target: PRKCD (Homo sapiens, UniProt Q05655); assay: biochemical; details: read-out: %Ctrl @ 2000nM
[24] = target: MKNK2 (Homo sapiens, UniProt Q9HBH9); assay: biochemical; details: read-out: %Ctrl @ 2000nM
[25] = target: FLT1 (Homo sapiens, UniProt P17948); assay: biochemical; details: read-out: %Ctrl @ 2000nM
Chain of FLT1 (P17948 27-1338): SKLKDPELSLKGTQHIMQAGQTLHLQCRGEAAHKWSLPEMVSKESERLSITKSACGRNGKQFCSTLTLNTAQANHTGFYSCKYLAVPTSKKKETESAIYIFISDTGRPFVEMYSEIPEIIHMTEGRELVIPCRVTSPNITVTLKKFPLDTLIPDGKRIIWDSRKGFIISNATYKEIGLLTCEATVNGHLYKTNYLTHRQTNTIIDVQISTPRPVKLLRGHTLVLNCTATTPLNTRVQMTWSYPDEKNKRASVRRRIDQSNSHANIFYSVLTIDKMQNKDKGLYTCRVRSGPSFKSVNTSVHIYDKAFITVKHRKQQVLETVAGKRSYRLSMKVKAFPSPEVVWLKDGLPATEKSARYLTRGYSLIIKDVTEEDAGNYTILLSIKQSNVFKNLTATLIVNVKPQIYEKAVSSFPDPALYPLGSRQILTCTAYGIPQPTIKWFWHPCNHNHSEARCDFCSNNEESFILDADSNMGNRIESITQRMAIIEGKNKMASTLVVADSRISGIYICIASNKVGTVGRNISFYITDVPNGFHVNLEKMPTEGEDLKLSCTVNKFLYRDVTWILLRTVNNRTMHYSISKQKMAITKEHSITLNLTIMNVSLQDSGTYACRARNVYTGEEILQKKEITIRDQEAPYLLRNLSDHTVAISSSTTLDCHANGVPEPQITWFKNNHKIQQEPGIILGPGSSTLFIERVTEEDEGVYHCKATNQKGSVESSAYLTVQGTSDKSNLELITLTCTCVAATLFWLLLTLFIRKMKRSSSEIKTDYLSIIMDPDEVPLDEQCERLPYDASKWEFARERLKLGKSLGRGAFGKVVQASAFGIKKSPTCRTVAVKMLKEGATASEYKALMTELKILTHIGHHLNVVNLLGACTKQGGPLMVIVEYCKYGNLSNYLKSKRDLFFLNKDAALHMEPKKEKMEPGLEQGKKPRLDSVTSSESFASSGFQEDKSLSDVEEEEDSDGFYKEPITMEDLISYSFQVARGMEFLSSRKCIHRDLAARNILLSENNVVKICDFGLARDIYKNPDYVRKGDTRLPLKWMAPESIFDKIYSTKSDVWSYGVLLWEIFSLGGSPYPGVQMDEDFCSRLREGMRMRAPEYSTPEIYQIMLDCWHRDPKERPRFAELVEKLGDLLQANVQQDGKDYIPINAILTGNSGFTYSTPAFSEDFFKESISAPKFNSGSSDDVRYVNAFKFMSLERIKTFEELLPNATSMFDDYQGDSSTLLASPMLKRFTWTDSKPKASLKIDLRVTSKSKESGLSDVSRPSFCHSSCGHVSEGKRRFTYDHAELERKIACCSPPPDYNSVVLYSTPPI

[26] = target: TAOK1 (Homo sapiens, UniProt Q7L7X3); assay: biochemical; details: read-out: %Ctrl @ 2000nM
[27] = target: YSK4 (Homo sapiens, UniProt Q56UN5); assay: biochemical; details: read-out: %Ctrl @ 2000nM
[28] = target: PIM1 (Homo sapiens, UniProt P11309); assay: biochemical; details: read-out: %Ctrl @ 2000nM
[29] = test system: HEK293 cells; details: high concentrations
[30] = target: BMPR2 (Homo sapiens, UniProt Q13873); assay: biochemical; details: read-out: %Ctrl @ 2000nM
[31] = target: BMPR1B (Homo sapiens, UniProt O00238); assay: biochemical; details: read-out: %Ctrl @ 2000nM
[32] = target: NEK3 (Homo sapiens, UniProt P51956); assay: biochemical; details: read-out: %Ctrl @ 2000nM
[33] = target: EGFR(G719S) (Homo sapiens, UniProt P00533, G719S); assay: biochemical; details: read-out: %Ctrl @ 2000nM
[34] = target: RSK2(Kin.Dom.1-N-terminal) (Homo sapiens, UniProt P51812); assay: biochemical; details: read-out: %Ctrl @ 2000nM
Chain of RSK2(Kin.Dom.1-N-terminal) (P51812 1-397 limits assumed): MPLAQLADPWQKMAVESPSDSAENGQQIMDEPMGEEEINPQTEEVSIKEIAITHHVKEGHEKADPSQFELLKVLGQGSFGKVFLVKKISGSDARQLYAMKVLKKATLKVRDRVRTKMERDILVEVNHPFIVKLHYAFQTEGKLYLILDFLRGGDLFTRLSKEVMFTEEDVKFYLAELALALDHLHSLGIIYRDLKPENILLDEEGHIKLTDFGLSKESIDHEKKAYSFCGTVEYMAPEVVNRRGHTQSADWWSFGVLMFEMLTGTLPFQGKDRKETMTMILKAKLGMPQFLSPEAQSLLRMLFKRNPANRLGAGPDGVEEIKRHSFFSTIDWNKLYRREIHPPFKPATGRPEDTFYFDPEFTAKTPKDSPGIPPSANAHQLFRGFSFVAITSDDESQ

[35] = target: PRKD3 (Homo sapiens, UniProt O94806); assay: biochemical; details: read-out: %Ctrl @ 2000nM
[36] = target: MLK3 (Homo sapiens, UniProt Q16584); assay: biochemical; details: read-out: %Ctrl @ 2000nM
[37] = target: IKK-alpha (Homo sapiens, UniProt O15111); assay: biochemical; details: read-out: %Ctrl @ 2000nM
[38] = target: CAMK1D (Homo sapiens, UniProt Q8IU85); assay: biochemical; details: read-out: %Ctrl @ 2000nM
[39] = test system: AKT (S129); details: 786-O cells; 48 h
[40] = target: KIT(V559D) (Homo sapiens, UniProt P10721, V559D); assay: biochemical; details: read-out: %Ctrl @ 2000nM
[41] = target: TGFBR1 (Homo sapiens, UniProt P36897); assay: biochemical; details: read-out: %Ctrl @ 2000nM
[42] = target: CAMK2D (Homo sapiens, UniProt Q13557); assay: biochemical; details: read-out: %Ctrl @ 2000nM
Chain of CAMK2D (Q13557 whole entry): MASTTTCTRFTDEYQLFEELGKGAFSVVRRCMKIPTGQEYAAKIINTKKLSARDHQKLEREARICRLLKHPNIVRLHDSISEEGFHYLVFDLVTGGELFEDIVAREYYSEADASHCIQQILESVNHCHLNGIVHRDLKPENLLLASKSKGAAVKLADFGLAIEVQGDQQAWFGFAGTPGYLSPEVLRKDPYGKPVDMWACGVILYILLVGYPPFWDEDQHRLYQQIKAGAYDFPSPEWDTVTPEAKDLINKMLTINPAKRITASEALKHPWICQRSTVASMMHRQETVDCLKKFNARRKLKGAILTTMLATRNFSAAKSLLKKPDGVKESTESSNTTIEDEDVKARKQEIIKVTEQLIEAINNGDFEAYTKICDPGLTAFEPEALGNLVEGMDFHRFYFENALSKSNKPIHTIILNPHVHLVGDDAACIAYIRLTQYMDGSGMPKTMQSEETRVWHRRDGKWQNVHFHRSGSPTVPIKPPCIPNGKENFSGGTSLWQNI

[43] = target: MEK4 (Homo sapiens, UniProt P45985); assay: biochemical; details: read-out: %Ctrl @ 2000nM

Chain of CAMK2A (Q9UQM7 whole entry): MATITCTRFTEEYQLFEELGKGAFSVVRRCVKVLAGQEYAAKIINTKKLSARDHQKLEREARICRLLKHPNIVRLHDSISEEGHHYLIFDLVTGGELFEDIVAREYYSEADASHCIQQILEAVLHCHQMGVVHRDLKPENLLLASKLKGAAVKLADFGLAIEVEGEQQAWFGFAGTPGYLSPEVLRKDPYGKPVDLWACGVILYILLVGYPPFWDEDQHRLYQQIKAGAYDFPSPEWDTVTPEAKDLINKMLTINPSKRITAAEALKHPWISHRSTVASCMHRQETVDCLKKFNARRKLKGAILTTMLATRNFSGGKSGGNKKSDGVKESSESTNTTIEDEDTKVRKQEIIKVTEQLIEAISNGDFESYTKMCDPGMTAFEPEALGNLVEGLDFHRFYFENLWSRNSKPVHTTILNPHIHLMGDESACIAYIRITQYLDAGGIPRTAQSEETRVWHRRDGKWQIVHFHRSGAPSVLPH

Question: Which results are given for `CC(C)COC(=O)c1[nH]c2ccc(F)cc2c1-c1cn(CC2CCN(CCNS(=O)(=O)c3ccc(CC(C)C)cc3)CC2)nn1` [AB668, isobutyl 5-fluoro-3-(1-((1-(2-((4-isobutylphenyl)sulfonamido)ethyl)piperidin-4-yl)methyl)-1H-1,2,3-triazol-4-yl)-1H-indole-2-carboxylate]?
Answer: remaining activity at 2 µM [1]: 100%; remaining activity at 2 µM [2]: 96%; cytotoxicity [3]: no cytotoxicity; remaining activity at 2 µM [4]: 94%; remaining activity at 2 µM [5]: 71%; remaining activity at 2 µM [6]: 86%; remaining activity at 2 µM [7]: 89%; remaining activity at 2 µM [8]: 100%; remaining activity at 2 µM [9]: 86%; remaining activity at 2 µM [10]: 100%; remaining activity at 2 µM [11]: 100%; remaining activity at 2 µM [12]: 90%; remaining activity at 2 µM [13]: 100%; remaining activity at 2 µM [14]: 95%; remaining activity at 2 µM [15]: 63%; cleavage of PARP [16]: cleavage of PARP; remaining activity at 2 µM [17]: 83%; remaining activity at 2 µM [18]: 100%; remaining activity at 2 µM [19]: 77%; remaining activity at 2 µM [20]: 98%; remaining activity at 2 µM [21]: 87%; remaining activity at 2 µM [22]: 100%; remaining activity at 2 µM [23]: 91%; remaining activity at 2 µM [24]: 100%; remaining activity at 2 µM [25]: 85%; remaining activity at 2 µM [26]: 100%; remaining activity at 2 µM [27]: 100%; remaining activity at 2 µM [28]: 91%; cytotoxicity [29]: no cytotoxicity; remaining activity at 2 µM [30]: 100%; remaining activity at 2 µM [31]: 100%; remaining activity at 2 µM [32]: 71%; remaining activity at 2 µM [33]: 68%; remaining activity at 2 µM [34]: 61%; remaining activity at 2 µM [35]: 100%; remaining activity at 2 µM [36]: 99%; remaining activity at 2 µM [37]: 100%; remaining activity at 2 µM [38]: 96%; phosphorylation of S129AKT [39]: decreased, in a dose-dependent manner; remaining activity at 2 µM [40]: 98%; remaining activity at 2 µM [41]: 84%; remaining activity at 2 µM [42]: 89%; remaining activity at 2 µM [43]: 89%
